Data published in US9309225B2, “N-((1-benzyl-1H-1,2,3-triazol-4-yl)methyl)arylamide compounds as potential anticancer agents and a process for the preparation thereof” (COUNCIL OF SCIENTIFIC & INDUSTRIAL RESEARCH, priority 2013, dated 2016).
Each block holds one compound with its values, some of them ahead of it.

How the values were obtained:
[1] = tested on: SNB-75; test: NCI sixty human tumor cell line screen, CNS panel; format: cell-based; conditions: SNB-75, CNS, NCI protocol
Protocol: (§1) The in vitro anticancer activity studies for these N-((1-benzyl-1H-1,2,3-triazol-4-yl)methyl) arylamide analogues were carried out at the National Cancer Institute, USA.
(§2) The N-((1-benzyl-1H-1,2,3-triazol-4-yl)methyl)arylamide analogues have been tested at NCI, USA, against sixty human tumor cell lines derived from nine cancer types (leukemia, non-small cell lung cancer, colon cancer, CNS cancer, melanoma cancer, ovarian cancer, renal cancer, prostate cancer and breast cancer). For these compounds results are expressed as growth inhibition (GI50) values as per NCI protocol.

[2] = tested on: U251; test: NCI sixty human tumor cell line screen, CNS panel; format: cell-based; conditions: U-251, NCI protocol
Protocol: as §1, §2

[3] = tested on: SF-295; test: NCI sixty human tumor cell line screen, CNS panel; format: cell-based; conditions: SF-295, CNS, NCI protocol
Protocol: as §1, §2

[4] = tested on: SNB-19; test: NCI sixty human tumor cell line screen, CNS panel; format: cell-based; conditions: SNB-19, CNS, NCI protocol
Protocol: as §1, §2

[5] = tested on: SF-268; test: NCI sixty human tumor cell line screen, CNS panel; format: cell-based; conditions: SF-268, CNS, NCI protocol
Protocol: as §1, §2

[6] = tested on: SF-539; test: NCI sixty human tumor cell line screen, CNS panel; format: cell-based; conditions: SF-539, CNS, NCI protocol
Protocol: as §1, §2

[7] = tested on: MDA-MB-468; test: NCI sixty human tumor cell line screen, Breast panel; format: cell-based; conditions: MDA-MB-468, Breast, NCI protocol
Protocol: as §1, §2

[8] = tested on: T-47D; test: as above; format: cell-based; conditions: T47D, NCI protocol
Protocol: as §1, §2

[9] = tested on: MDA-MB-31/ATCC; test: as above; format: cell-based; conditions: NCI protocol
Protocol: as §1, §2

[10] = tested on: BT-549; test: as above; format: cell-based; conditions: BT-549, Breast, NCI protocol
Protocol: as §1, §2

[11] = tested on: HOP-62; test: NCI sixty human tumor cell line screen, Non-small-cell-lung panel; format: cell-based; conditions: HOP-62, Non-small-cell-lung, NCI protocol
Protocol: as §1, §2

[12] = tested on: EKVX; test: as above; format: cell-based; conditions: NCI protocol
Protocol: as §1, §2

[13] = tested on: NCI-H522; test: as above; format: cell-based; conditions: NCI protocol
Protocol: as §1, §2

[14] = tested on: NCI-H226; test: as above; format: cell-based; conditions: NCI protocol
Protocol: as §1, §2

[15] = tested on: A549/ATCC; test: as above; format: cell-based; conditions: NCI protocol
Protocol: as §1, §2

[16] = tested on: NCI-H460; test: as above; format: cell-based; conditions: NCI protocol
Protocol: as §1, §2

[17] = tested on: KM12; test: NCI sixty human tumor cell line screen, Colon panel; format: cell-based; conditions: NCI protocol
Protocol: as §1, §2

[18] = tested on: SW-620; test: as above; format: cell-based; conditions: SW-620, Colon, NCI protocol
Protocol: as §1, §2

[19] = tested on: HT29; test: as above; format: cell-based; conditions: HT-29, NCI protocol
Protocol: as §1, §2

[20] = tested on: COLO 205; test: as above; format: cell-based; conditions: COLO 205, Colon, NCI protocol
Protocol: as §1, §2

[21] = tested on: HCT-116; test: as above; format: cell-based; conditions: HCT-116, Colon, NCI protocol
Protocol: as §1, §2

[22] = tested on: PC-3; test: NCI sixty human tumor cell line screen, Prostate panel; format: cell-based; conditions: PC-3, Prostate, NCI protocol
Protocol: as §1, §2

[23] = tested on: DU-145; test: as above; format: cell-based; conditions: DU-145, Prostate, NCI protocol
Protocol: as §1, §2

[24] = tested on: OVCAR-8; test: NCI sixty human tumor cell line screen, Ovarian panel; format: cell-based; conditions: OVCAR-8, Ovarian, NCI protocol
Protocol: as §1, §2

[25] = tested on: NCI/ADR-RES; test: as above; format: cell-based; conditions: NCI protocol
Protocol: as §1, §2

[26] = tested on: OVCAR-4; test: as above; format: cell-based; conditions: OVCAR-4, Ovarian, NCI protocol
Protocol: as §1, §2

[27] = tested on: OVCAR-3; test: as above; format: cell-based; conditions: OVCAR-3, Ovarian, NCI protocol
Protocol: as §1, §2

[28] = tested on: SK-OV-3; test: as above; format: cell-based; conditions: SK-OV-3, Ovarian, NCI protocol
Protocol: as §1, §2

[29] = tested on: SK-MEL-5; test: NCI sixty human tumor cell line screen, Melanoma panel; format: cell-based; conditions: SK-MEL-5, Melanoma, NCI protocol
Protocol: as §1, §2

[30] = tested on: UACC-62; test: as above; format: cell-based; conditions: UACC-62, Melanoma, NCI protocol
Protocol: as §1, §2

[31] = tested on: MDA-MB-435; test: as above; format: cell-based; conditions: MDA-MB-435, Melanoma, NCI protocol
Protocol: as §1, §2

[32] = tested on: SK-MEL-28; test: as above; format: cell-based; conditions: SK-MEL-28, Melanoma, NCI protocol
Protocol: as §1, §2

[33] = tested on: M14; test: as above; format: cell-based; conditions: NCI protocol
Protocol: as §1, §2

[34] = tested on: LOX IMVI; test: as above; format: cell-based; conditions: NCI protocol
Protocol: as §1, §2

[35] = tested on: SK-MEL-2; test: as above; format: cell-based; conditions: SK-MEL-2, Melanoma, NCI protocol
Protocol: as §1, §2

[36] = tested on: CAKI-1; test: NCI sixty human tumor cell line screen, Renal panel; format: cell-based; conditions: CAKI-1, Renal, NCI protocol
Protocol: as §1, §2

[37] = tested on: SN12C; test: as above; format: cell-based; conditions: NCI protocol
Protocol: as §1, §2

[38] = tested on: A498; test: as above; format: cell-based; conditions: NCI protocol
Protocol: as §1, §2

[39] = tested on: UO-31; test: as above; format: cell-based; conditions: UO-31, Renal, NCI protocol
Protocol: as §1, §2

[40] = tested on: ACHN; test: as above; format: cell-based; conditions: NCI protocol
Protocol: as §1, §2

[41] = tested on: RXF 393; test: as above; format: cell-based; conditions: RXF 393, Renal, NCI protocol
Protocol: as §1, §2

[42] = tested on: TK-10; test: as above; format: cell-based; conditions: TK-10, Renal, NCI protocol
Protocol: as §1, §2

[43] = tested on: NCI-H322M; test: NCI sixty human tumor cell line screen, Non-small-cell-lung panel; format: cell-based; conditions: NCI protocol
Protocol: as §1, §2

Structure (SMILES): O=C(NCc1cn(Cc2cccc(Oc3ccccc3)c2)nn1)c1cccnc1Nc1ccccc1 [Compound 1a, N-((1-(3-Phenoxybenzyl)-1H-1,2,3-triazol-4-yl)methyl)-2-(phenylamino)nicotinamide]
- GI50 [1]: 1.94 µM
- GI50 [2]: 3.61 µM
- GI50 [3]: 3.69 µM
- GI50 [4]: 3.27 µM
- GI50 [5]: 3.22 µM
- GI50 [6]: 3.1 µM
- GI50 [7]: 51.7 µM
- GI50 [8]: 21.4 µM
- GI50 [9]: 14.5 µM
- GI50 [10]: 45.5 µM
- GI50 [11]: 5.58 µM
- GI50 [12]: 5.18 µM
- GI50 [13]: 2.11 µM
- GI50 [14]: 3.24 µM
- GI50 [15]: 4.81 µM
- GI50 [16]: 2.85 µM
- GI50 [17]: 3.63 µM
- GI50 [18]: 3.97 µM
- GI50 [19]: 3.65 µM
- GI50 [20]: 2.79 µM
- GI50 [21]: 3.4 µM
- melting point: 124 to 126 °C
- GI50 [22]: 20.4 µM
- GI50 [23]: 8.58 µM
- GI50 [24]: 7.44 µM
- GI50 [25]: 14 µM
- GI50 [26]: 23.4 µM
- GI50 [27]: 17.7 µM
- GI50 [28]: 5.94 µM
- GI50 [29]: 3.89 µM
- GI50 [30]: 3.02 µM
- GI50 [31]: 2.65 µM
- GI50 [32]: 4.93 µM
- GI50 [33]: 2.86 µM
- GI50 [34]: 4.54 µM
- GI50 [35]: 6.05 µM
- GI50 [36]: 64.2 µM
- GI50 [37]: 52.9 µM
- GI50 [38]: 13.7 µM
- GI50 [39]: 86.3 µM
- GI50 [40]: 11.1 µM
- GI50 [41]: 5.69 µM
- GI50 [42]: 24.5 µM

- melting point: 160 to 162 °C
Structure (SMILES): O=C(NCc1cn(Cc2cccc(Oc3ccccc3)c2)nn1)c1cccnc1Nc1ccc(F)cc1 [Compound 1b, 2-(4-Fluorophenylamino)-N-((1-(3-phenoxybenzyl)-1H-1,2,3-triazol4-yl)methyl)nicotinamide]
- GI50 [1]: 3.81 µM
- GI50 [2]: 7.12 µM
- GI50 [3]: 5.66 µM
- GI50 [4]: 20.7 µM
- GI50 [5]: 2.1 µM
- GI50 [6]: 15.1 µM
- GI50 [7]: 2.32 µM
- GI50 [8]: 4.03 µM
- GI50 [9]: 3.09 µM
- GI50 [10]: 4.58 µM
- GI50 [43]: 5.29 µM
- GI50 [11]: 60.2 µM
- GI50 [12]: 25.3 µM
- GI50 [13]: 10.8 µM
- GI50 [14]: 38.6 µM
- GI50 [15]: 6.11 µM
- GI50 [16]: 5.25 µM
- GI50 [17]: 5.61 µM
- GI50 [18]: 6.58 µM
- GI50 [19]: 5.6 µM
- GI50 [20]: 6.22 µM
- GI50 [21]: 5.02 µM
- GI50 [22]: 3.86 µM
- GI50 [23]: 3.76 µM
- GI50 [24]: 3.72 µM
- GI50 [25]: 2.12 µM
- GI50 [26]: 5.19 µM
- GI50 [27]: 2.98 µM
- GI50 [28]: 3.11 µM
- GI50 [29]: 4.48 µM
- GI50 [30]: 6.51 µM
- GI50 [31]: 2.79 µM
- GI50 [32]: 7.98 µM
- GI50 [33]: 13.7 µM
- GI50 [34]: 61.3 µM
- GI50 [35]: 34.2 µM
- GI50 [36]: 3.41 µM
- GI50 [37]: 4.75 µM
- GI50 [38]: 2.35 µM
- GI50 [39]: 3 µM
- GI50 [40]: 4.79 µM
- GI50 [41]: 2.59 µM
- GI50 [42]: 4.59 µM
